Experiments:
[1] = tested on: chicken fibroblast cell line SL29; assay: Cell attachment assay, fibroblasts on protein-coated solid support; type: cell-based; conditions: CT coated at 20 μg/ml, binding fragments at 0.75 μM, non-binding at three times that, 1 hour
Procedure: In the cell attachment assays, a single cell suspension was allowed to settle for a fixed period of time onto a solid support that has been coated with the different CT-derived proteins to be tested for cell attachment (Friedlander, et al., J. Cell Biol. 107: 2329-2340 (1988)). After removing the unbound and loosely bound cells by washing, the attachment and morphology of those cells remaining on the dish were analyzed.
Solid supports, consisting of a circular array of CT or CT:GST fusion proteins bound to a dish, were prepared as follows for the cell attachment assay.
For the initial study, non tissue-culture treated polystyrene plates (Falcon 1008) were spotted with 2 μl of a 0.5 to 1.5 μM solution of CT in PBS for 30 minutes to coat a specific area on the dish with CT. CT was isolated from chicken brain or from fibroblast culture supernatant as described in Crossin, PNAS 88: 11403-11407 (1991) and Hoffman et al., J. Cell Biol. 106: 519-532 (1988). CT was placed in a circular array near the center of the dish and incubated at 37° C. for 30 minutes. After CT had adsorbed to the dish, the central portion of the dish was washed once with 250 μl of 20% (w/v) BSA in PBS. Non-specific binding sites on the dish were then blocked with 250 μl of 20% (w/v) BSA in PBS by incubation for 2 to 3 hours at room temperature.
For the subsequent study with the CT:GST fusion proteins, non tissue-culture treated polystyrene plates (Falcon 1008) were spotted with 2 μl of a 0.5 to 1.5 μM solution of CT:GST fusion protein in PBS as prepared in Example 5.A.2 or GST in PBS for 30 minutes to coat a specific area on the dish with CT:GST fusion protein or GST. The proteins to be tested were placed in a circular array near the center of the dish and incubated at 37° C. for 30 minutes. After the proteins adsorbed to the dish, the central portion of the dish was washed once with 250 μl of 20% (w/v) BSA in PBS. Non-specific binding sites on the dish were then blocked with 250 μl of 20% (w/v) BSA in PBS by incubation for 2 to 3 hours at room temperature.
The chicken fibroblast cell line SL29 (ATCC CRL 1590) was grown to confluence in Dulbecco's Minimum Essential Medium (DMEM; Gibco-BRL, Gaithersburg, Mass.) with 10% (v/v) fetal calf serum (FCS; Gibco-BRL) with penicillin and streptomycin. The cells were passaged the night prior to the assay and seeded at a density of 1:2. Cells were harvested in calcium, magnesium-free Hank's balanced salt solution (CMF-HBSS, Gibco-BRL) with 20 mM Hepes buffer and 5 mM EDTA. Harvested cells were washed in attachment buffer (CMF-HBSS with 10 mM Hepes, 1 mM CaCl2, 1 mM MgCl2, 0.1 mM MnCl2, and 2% (w/v) bovine serum albumin (BSA)) three times. The number of cells was quantitated by counting the cells in a hemocytometer. The cells were resuspended in attachment buffer to a density of 6×10^5 cells/ml.
Chicken fibroblasts, DRG, and solid supports (dishes) coated with CT for use in the cell attachment assays were prepared as described in Examples 5.A.2-4, respectively. The chicken fibroblasts and DRG at a density of 6×10^5 cells/ml were added to the prepared dishes and incubated at 37° C. in 5% CO2 for 1 hour. The dishes were then washed three times in PBS with gentle swirling to remove unattached cells, fixed in 1% glutaraldehyde in PBS, and viewed by phase contrast microscopy. The number of bound cells was determined using a 10× objective with an eyepiece reticle. The number of cells was determined in four fields for each fusion protein dot as the number of cells bound per […]. CT was tested in triplicate. The number of cells bound for CT was expressed as the average of the twelve measurements±standard deviation […].
CT, coated at a concentration of 20 μg/ml, was used as a solid support for SL29 fibroblast attachment. […] Fragments of CT were generated using the pGEX fusion protein system, as described in Example 1. The cell attachment assay was performed essentially as described above for the cell attachment assay to intact CT. […]

[2] = tested on: dorsal root ganglia (DRG) neurons; assay: Two-dimensional neurite outgrowth assay, DRG, 15 hours; type: cell-based, chicken; conditions: 15 hours
Procedure: (§1) Dorsal root ganglia (DRG) cells or forebrain neurons were prepared for the cell attachment assays as follows. DRG from day 6 chicken embryos or forebrains from day 7 chicken embryos were dissected into HBSS. The tissue was pelleted by centrifugation and resuspended in CMF-HBSS and incubated at 37° C. for 10 minutes. The tissue was pelleted again and resuspended in CMF-HBSS containing 0.08% trypsin and allowed to trypsinize for 20 minutes at 37° C. An equal volume of DMEM/F12, 10% FCS, 20 ng/ml nerve growth factor (NGF) (for DRG cells only), 10 μg/ml gentamycin (10% medium) was added, and the tissue was pelleted and resuspended in 2 ml of the 10% medium. The cells were triturated with a fire-polished Pasteur pipette for 15 strokes, and the cells were washed and resuspended in 10 ml of 10% medium. DRG cells were plated in a 10 cm tissue culture dish and incubated for 1 hour at 37° C. in 5% CO2, to allow for attachment of contaminating fibroblasts.
(§2) After replating, the cells were harvested, pelleted and washed three times in DMEM/F12, 1% fetal calf serum (FCS), 20 ng/ml NGF (for DRG cells only), 10 μg/ml gentamycin (1% medium), and the number of cells determined using a hemocytometer. The DRG were resuspended to a density of 6×10^5 cells/ml in attachment buffer. The neurons were resuspended to a density of 2×10^4 cells/ml in 1% medium and added to substrates and placed at 37° C., 5% CO2 for 15 hours.
(§3) After the growth period, the dishes were gently rinsed with PBS to remove unbound cells, fixed with 1% glutaraldehyde, and viewed by phase contrast microscopy. Ten to forty cells were analyzed for each substrate. Cells were judged as neurite-bearing if the length of the processes was greater than one cell diameter. All cells with neurites were photographed with a 20× objective and total neurite length per neurite-bearing cell was derived from the photographic prints. Percentage of neuronal sprouting was calculated from at least six experiments. Neurite length was calculated from at least three experiments.
This extensive neurite outgrowth after 40 hours made quantitation of the percentage of neurite-bearing cells and neurite length difficult. To analyze quantitatively the effect of CT/TN fusion proteins on DRG neurite outgrowth, DRG cells were therefore plated at low density on CT/TN or CT/TN fragments and analyzed after 15 hours in culture for the percentage of cells that sprouted neurites greater than one cell diameter and for the everage neurite length per neuron. These conditions enhanced the number of isolated cells and discouraged the cell-cell interactions and fasciculation that occurred in the long-term cultures.
The proteins used in the neurite outgrowth assays are the same as those used in the cell attachment assays. […] In addition, poly-L-lysine was adsorbed to the solid support. […] Any cells adhering to the solid support were examined for sprouting and neurite length as defined herein.
Proteins used in the neurite outgrowth assays were prepared as described in Example 5.A.2.
Dorsal root ganglia (DRG) from day 6 chicken embryos were prepared as described in Example 5.A.4. For the neurite outgrowth assays, the DRG were resuspended at a density of 2×10^4 cells/ml in 1% medium, added to solid support, and placed at 37° C. in 5% CO2 for 15 hours. After the attachment and growth period, the dishes were gently rinsed with PBS to remove unbound cells, fixed with 1% (v/v) glutaraldehyde, and viewed by phase contrast microscopy. Ten to thirty cells were analyzed for each adsorbed protein spot. Cells were judged as neurite-bearing if the length of the processes were greater than one cell diameter. All cells with neurites were photographed with a 40× objective and the total neurite length per neurite-bearing cell was derived from the prints. The percent of cells that were sprouting and the average neurite length was derived from six and three independent experiments, respectively. […]

[3] = tested on: neurons from chick forebrain; assay: CNS neurite outgrowth, forebrain neurons, 7 hours; type: cell-based; conditions: 7 hour growth period
Procedure: as §1, §2, §3
To investigate whether CNS neurons could also extend neurites on CT/TN and CT/TN fragments, neurons from chick forebrain were plated at low density on CT/TN, CT/TN fragments and polylysine, and analyzed for neurite outgrowth after a 7 hour growth period (a time period found to be optimal for stable neurite outgrowth from these cells). The lengths of neurites on substrates that supported sprouting were essentially the same for the forebrain neurons and were therefore not quantitated further.

[4] = target: β1 integrin on chicken SL29 fibroblasts and chick dorsal root ganglion neurons (chicken) (UniProt P07228); assay: cell-based or functional assay
[5] = target: integrin receptor mediating RGD-dependent, not β1 integrin-mediated attachment of chicken SL29 fibroblasts and DRG cells; assay: cell-based or functional assay
[6] = tested on: DRG cells; assay: DRG neurite outgrowth, 40 hour culture, morphology; type: cell-based, chicken; conditions: DRG cells cultured 40 hours
Procedure: In order to assess the effect to the cell binding regions of CT/TN on the outgrowth of neurites from PNS neurons, DRG cells were cultured for 40 hours on popylysine, CTfn3, CTfn6, CTfg, and CTfn3-CTfn6 mixed substrates. The cultures were then fixed and the cell and neurite morphology was analyzed by phase contrast microscopy. The cells were plated on plastic substrates coated with the same concentrations of CTITN and fusion proteins used in the attachment assay.

UniProt P07228, sequence (P07228 25-803, form in doubt): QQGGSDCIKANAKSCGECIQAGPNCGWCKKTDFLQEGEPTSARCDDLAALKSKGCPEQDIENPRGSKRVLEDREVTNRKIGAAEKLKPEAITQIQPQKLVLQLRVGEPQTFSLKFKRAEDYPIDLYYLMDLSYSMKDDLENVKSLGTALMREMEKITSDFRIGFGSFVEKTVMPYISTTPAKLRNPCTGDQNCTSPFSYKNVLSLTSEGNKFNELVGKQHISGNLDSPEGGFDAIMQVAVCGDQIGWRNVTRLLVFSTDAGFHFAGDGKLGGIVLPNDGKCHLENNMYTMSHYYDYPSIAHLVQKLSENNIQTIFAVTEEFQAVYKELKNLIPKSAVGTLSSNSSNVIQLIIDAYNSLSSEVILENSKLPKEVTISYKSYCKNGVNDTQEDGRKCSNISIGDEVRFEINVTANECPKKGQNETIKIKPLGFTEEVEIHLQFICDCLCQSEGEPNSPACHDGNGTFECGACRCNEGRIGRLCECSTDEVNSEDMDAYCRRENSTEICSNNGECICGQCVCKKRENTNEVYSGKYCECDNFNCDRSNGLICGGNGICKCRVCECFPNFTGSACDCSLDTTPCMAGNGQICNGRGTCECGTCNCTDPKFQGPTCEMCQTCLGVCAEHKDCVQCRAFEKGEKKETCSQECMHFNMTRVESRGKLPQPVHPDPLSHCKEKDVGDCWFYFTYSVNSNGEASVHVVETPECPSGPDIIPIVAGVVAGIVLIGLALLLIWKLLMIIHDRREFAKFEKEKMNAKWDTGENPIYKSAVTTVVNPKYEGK

“CT: intact cytotactin isolated from chicken brain or fibroblast culture supernatant” was tested, and the “SL29 fibroblast attachment to coated substrate (words)” value [1] was “readily attached”, the “SL29 fibroblast attachment to coated substrate (words)” value ([1]; listed as CT/TN) was “bound well” and the “percentage of DRG cells that sprouted neurites” value ([2]; DRG) was “About 50%”. The “percentage of DRG cells that sprouted neurites” value ([2]; DRG, listed as CT/TN) was 30%, the “% Sprouting” value ([2]; Table 4, DRG, neurites greater than one cell diameter) was 30 ± 3 % and the “Neurite Length” value ([2]; Table 4, DRG, per neurite-bearing cell) was 332 ± 177 microns. The “Percent Sprouting” value ([2]; Table 5, DRG, six experiments) was 30 ± 3, the “Neurite Length (in microns)” value ([2]; Table 5, DRG, three experiments) was 332 ± 177 microns and the “forebrain cell attachment” value [3] was “low level of attachment”. The “forebrain neuron sprouting versus polylysine” value [3] was “did not support sprouting of neurites” and the “% Sprouting” value ([3]; Table 4, FB (forebrain) neurons) was 0%.

Work on “CTfg CT:GST fusion protein (fibrinogen domain of chicken cytotactin fused to GST) (from UniProt P10039 1568-1808)” yielded a decrease in DRG cell attachment to CTfg after preincubation with JG22 [4] of 19%.

Molecule “intact cytotactin (CT) isolated from chicken brain or from fibroblast culture supernatant (from UniProt P10039 34-1808) (ligand)” has an inhibition of SL29 fibroblast attachment to intact CT/TN by GRGDTP (1 mg/ml) [5] of 33%, an inhibition of cell attachment to intact CT by soluble GRGDSP (1 mg/ml) [5] of 73% and an inhibition of cell attachment to intact CT by soluble GRGDTP (1 mg/ml) [5] of 70%.

“CTfn5-6 fusion protein spanning the fifth and sixth FN type III repeats of chicken cytotactin (from UniProt P08515 1-218)” gave an inhibition of SL29 fibroblast binding to CTfn5-6 by mAb JG22 [4] of 77%.

B1: CTfn3-6: single construct containing fibronectin type III repeats III and VI, SEQ ID NO 29 (protein, listed as Gallus gallus)
chain: LDAPSQIEAKDVTDTTALITWSKPLAEIEGIELTYGPKDVPGDRTTIDLSEDENQYSIGNLRPHTEYEYEVTLISRRGDMESDPAKEVFVTVVGSPKGISFSDITENSARVSWTPPRSRVDSYRVSYVPITGGTPNVVTVDGSKTRTKLVKLVPGVDYNVNIISVKGFEESE
With B1 the “neurite promoting activity on DRG cells” value ([2]; DRG, low density) was “significant increase both in the percentage of neurite-bearing cells and in neurite elongation” and the “neurite and cell morphology after 40 hours” value [6] was “much longer and less fasciculated”.

From patent US6482410B1, “Cytotactin derivatives that stimulate attachment and neurite outgrowth, and methods of making same” (The Scripps Research Institute, priority 1994, dated 2002)
